Assay results taken from ChEMBL document CHEMBL1201862, “PubChem BioAssay data set” (2004).
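Tested at 5 concentrations; 48 h exposure; 96-well plates; endpoints linearly interpolated, else capped at highest concentration. Abbreviation: GI50, concentration required for 50% inhibition of growth.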 Calls of active or inactive are those of the source. Rule as the data show it: active = GI50 up to about 1.1 µM and inactive = higher.

Legend:
Assay in all cases: NCI-60 cell line screen, 48 h
SW-620 = tested on: SW-620
CAKI-1 = tested on: CAKI-1
M14 = tested on: M14
EKVX = tested on: EKVX
U-251 = tested on: U-251
HOP-92 = tested on: HOP-92
UACC-62 = tested on: UACC-62
SK-MEL-28 = tested on: SK-MEL-28
KM12 = tested on: KM12
CCRF-CEM = tested on: CCRF-CEM
MDA-MB-231 = tested on: MDA-MB-231
LOX IMVI = tested on: LOX IMVI
SK-OV-3 = tested on: SK-OV-3
MDA-N = tested on: MDA-N
K562 = tested on: K562
OVCAR-4 = tested on: OVCAR-4
OVCAR-5 = tested on: OVCAR-5
SN12C = tested on: SN12C
RXF 393 = tested on: RXF 393
Malme-3M = tested on: Malme-3M
786-0 = tested on: 786-0
RPMI-8226 = tested on: RPMI-8226
IGROV-1 = tested on: IGROV-1
SF-539 = tested on: SF-539
HL-60 = tested on: HL-60
NCI-H23 = tested on: NCI-H23
SNB-75 = tested on: SNB-75
NCI-H522 = tested on: NCI-H522
A549 = tested on: A549
ACHN = tested on: ACHN
TK-10 = tested on: TK-10
UO-31 = tested on: UO-31
UACC-257 = tested on: UACC-257
HCC 2998 = tested on: HCC 2998
OVCAR-8 = tested on: OVCAR-8
HCT-15 = tested on: HCT-15
BT-549 = tested on: BT-549
OVCAR-3 = tested on: OVCAR-3
PC-3 = tested on: PC-3
MOLT-4 = tested on: MOLT-4
COLO 205 = tested on: COLO 205
NCI/ADR-RES = tested on: NCI/ADR-RES
NCI-H226 = tested on: NCI-H226
SNB-19 = tested on: SNB-19
SK-MEL-2 = tested on: SK-MEL-2
SF-295 = tested on: SF-295
MDA-MB-435 = tested on: MDA-MB-435
A498 = tested on: A498
SK-MEL-5 = tested on: SK-MEL-5
SR = tested on: SR
HCT-116 = tested on: HCT-116
MCF7 = tested on: MCF7
DU-145 = tested on: DU-145
HT-29 = tested on: HT-29
HOP-62 = tested on: HOP-62
NCI-H460 = tested on: NCI-H460
Hs-578T = tested on: Hs-578T
T47D = tested on: T47D
SF-268 = tested on: SF-268

Question: What does the source list for `Cc1ccc(-c2c(C#N)c(S)n(NS(=O)(=O)c3ccc(C)cc3)c(=O)c2C#N)cc1`?
Answer: GI50 (SW-620): 19.9 µM (inactive); GI50 (CAKI-1): 28 µM (inactive); GI50 (M14): 31.3 µM (inactive); GI50 (EKVX): 23.6 µM (inactive); GI50 (U-251): 18.1 µM (inactive); GI50 (HOP-92): 22.6 µM (inactive); GI50 (UACC-62): 28.5 µM (inactive); GI50 (SK-MEL-28): 22 µM (inactive); GI50 (KM12): 18 µM (inactive); GI50 (CCRF-CEM): 8.02 µM (inactive); GI50 (MDA-MB-231): 29.6 µM (inactive); GI50 (LOX IMVI): 27.2 µM (inactive); GI50 (SK-OV-3): 45 µM (inactive); GI50 (MDA-N): 35.6 µM (inactive); GI50 (K562): 35.8 µM (inactive); GI50 (OVCAR-4): 15.5 µM (inactive); GI50 (OVCAR-5): 27.4 µM (inactive); GI50 (SN12C): 31.5 µM (inactive); GI50 (RXF 393): 23.5 µM (inactive); GI50 (Malme-3M): 3.56 µM (inactive); GI50 (786-0): 29 µM (inactive); GI50 (RPMI-8226): 24.7 µM (inactive); GI50 (IGROV-1): 16.7 µM (inactive); GI50 (SF-539): 20.3 µM (inactive); GI50 (HL-60): 14.9 µM (inactive); GI50 (NCI-H23): 18.5 µM (inactive); GI50 (SNB-75): 14.3 µM (inactive); GI50 (NCI-H522): 19.1 µM (inactive); GI50 (A549): 39.2 µM (inactive); GI50 (ACHN): 20.6 µM (inactive); GI50 (TK-10): 19.8 µM (inactive); GI50 (UO-31): 17.5 µM (inactive); GI50 (UACC-257): 40 µM (inactive); GI50 (HCC 2998): 5.19 µM (inactive); GI50 (OVCAR-8): 21 µM (inactive); GI50 (HCT-15): 20.2 µM; GI50 (BT-549): 16.6 µM (inactive); GI50 (OVCAR-3): 34.7 µM (inactive); GI50 (PC-3): 22.8 µM (inactive); GI50 (MOLT-4): 24.2 µM (inactive); GI50 (COLO 205): 30 µM (inactive); GI50 (NCI/ADR-RES): 32.8 µM (inactive); GI50 (NCI-H226): 11.7 µM (inactive); GI50 (SNB-19): 21.6 µM (inactive); GI50 (SK-MEL-2): 23.3 µM (inactive); GI50 (SF-295): 23.1 µM (inactive); GI50 (MDA-MB-435): 22.3 µM (inactive); GI50 (A498): 33.7 µM (inactive); GI50 (SK-MEL-5): 21 µM (inactive); GI50 (SR): 29.6 µM (inactive); GI50 (HCT-116): 27 µM (inactive); GI50 (MCF7): 31.6 µM (inactive); GI50 (DU-145): 41.8 µM (inactive)

Question: For `O=C(NC(C(F)(F)F)(C(F)(F)F)P(=O)(Cc1ccccc1)Cc1ccccc1)C(C(F)(F)F)C(F)(F)F`, which GI50 (SW-620) is on record?
Answer: 44.4 µM (inactive)

Question: And the GI50 (CAKI-1)?
Answer: 52.4 µM (inactive)

Question: And the GI50 (HT-29)?
Answer: 19.8 µM (inactive)

Question: What about the GI50 (M14) of the same compound?
Answer: 18.4 µM (inactive)

Question: And the GI50 (EKVX)?
Answer: 26.4 µM (inactive)

Question: What about the GI50 (U-251) of the same compound?
Answer: 17.6 µM (inactive)

Question: And the GI50 (UACC-62)?
Answer: 27.2 µM (inactive)

Question: And the GI50 (SK-MEL-28)?
Answer: 25.6 µM (inactive)

Question: What about the GI50 (KM12) of the same compound?
Answer: 19.5 µM (inactive)

Question: What about the GI50 (CCRF-CEM) of the same compound?
Answer: 29.6 µM (inactive)

Question: And the GI50 (MDA-MB-231)?
Answer: 19.8 µM (inactive)

Question: And the GI50 (HOP-62)?
Answer: 20.6 µM (inactive)

Question: And the GI50 (LOX IMVI)?
Answer: 18.1 µM (inactive)

Question: What about the GI50 (SK-OV-3) of the same compound?
Answer: 31.8 µM (inactive)

Question: What about the GI50 (MDA-N) of the same compound?
Answer: 19.5 µM (inactive)

Question: What about the GI50 (K562) of the same compound?
Answer: 23 µM (inactive)

Question: What about the GI50 (NCI-H460) of the same compound?
Answer: 27.7 µM (inactive)

Question: And the GI50 (OVCAR-5)?
Answer: 22.3 µM (inactive)

Question: What about the GI50 (SN12C) of the same compound?
Answer: 17.7 µM (inactive)

Question: And the GI50 (RXF 393)?
Answer: 21 µM (inactive)

Question: And the GI50 (Malme-3M)?
Answer: 19.1 µM (inactive)

Question: And the GI50 (786-0)?
Answer: 17.2 µM (inactive)

Question: And the GI50 (RPMI-8226)?
Answer: 25.2 µM (inactive)

Question: And the GI50 (IGROV-1)?
Answer: 18.5 µM (inactive)

Question: What about the GI50 (SF-539) of the same compound?
Answer: 20.7 µM (inactive)

Question: What about the GI50 (HL-60) of the same compound?
Answer: 22.4 µM (inactive)

Question: And the GI50 (NCI-H23)?
Answer: 19.7 µM (inactive)

Question: What about the GI50 (NCI-H522) of the same compound?
Answer: 26.2 µM (inactive)

Question: And the GI50 (A549)?
Answer: 25.9 µM (inactive)

Question: And the GI50 (ACHN)?
Answer: 19.7 µM (inactive)

Question: And the GI50 (Hs-578T)?
Answer: 55.7 µM (inactive)

Question: And the GI50 (TK-10)?
Answer: 21.8 µM (inactive)

Question: And the GI50 (T47D)?
Answer: 34.9 µM (inactive)

Question: What about the GI50 (UACC-257) of the same compound?
Answer: 22.6 µM (inactive)

Question: What about the GI50 (HCC 2998) of the same compound?
Answer: 27.5 µM (inactive)

Question: What about the GI50 (OVCAR-8) of the same compound?
Answer: 22.3 µM (inactive)

Question: What about the GI50 (HCT-15) of the same compound?
Answer: 29.4 µM

Question: What about the GI50 (OVCAR-3) of the same compound?
Answer: 31.6 µM (inactive)

Question: And the GI50 (PC-3)?
Answer: 21.5 µM (inactive)

Question: What about the GI50 (MOLT-4) of the same compound?
Answer: 16.9 µM (inactive)

Question: And the GI50 (COLO 205)?
Answer: 18.4 µM (inactive)

Question: What about the GI50 (NCI/ADR-RES) of the same compound?
Answer: 17.9 µM (inactive)

Question: What about the GI50 (NCI-H226) of the same compound?
Answer: 13.4 µM (inactive)

Question: What about the GI50 (SNB-19) of the same compound?
Answer: 27.7 µM (inactive)

Question: What about the GI50 (SK-MEL-2) of the same compound?
Answer: 26.4 µM (inactive)

Question: What about the GI50 (SF-295) of the same compound?
Answer: 20.7 µM (inactive)

Question: What about the GI50 (MDA-MB-435) of the same compound?
Answer: 17.4 µM (inactive)

Question: What about the GI50 (A498) of the same compound?
Answer: 17.3 µM (inactive)

Question: And the GI50 (SF-268)?
Answer: 23.3 µM (inactive)

Question: And the GI50 (SK-MEL-5)?
Answer: 15.4 µM (inactive)

Question: What about the GI50 (SR) of the same compound?
Answer: 18.7 µM (inactive)

Question: What about the GI50 (HCT-116) of the same compound?
Answer: 17.3 µM (inactive)

Question: And the GI50 (MCF7)?
Answer: 12.2 µM (inactive)

Question: What about the GI50 (DU-145) of the same compound?
Answer: 37.8 µM (inactive)
